What was measured:
Aurora kinase A = target: T1, Aurora kinase A (Homo sapiens, UniProt O14965); assay: Inhibition of Aurora A
T1 sequence (O14965 whole entry): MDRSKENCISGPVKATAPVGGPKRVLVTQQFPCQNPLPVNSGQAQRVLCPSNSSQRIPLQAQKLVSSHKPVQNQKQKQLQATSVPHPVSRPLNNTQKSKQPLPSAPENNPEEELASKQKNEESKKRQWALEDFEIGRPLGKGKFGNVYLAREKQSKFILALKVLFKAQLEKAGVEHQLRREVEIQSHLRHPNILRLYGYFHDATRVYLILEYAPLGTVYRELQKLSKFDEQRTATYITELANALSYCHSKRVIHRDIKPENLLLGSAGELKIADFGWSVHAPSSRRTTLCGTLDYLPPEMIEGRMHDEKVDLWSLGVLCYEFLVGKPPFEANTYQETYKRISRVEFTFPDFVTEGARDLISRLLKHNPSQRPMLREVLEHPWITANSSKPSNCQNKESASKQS

Aurora kinase B = Aurora kinase B (Homo sapiens, UniProt Q96GD4); assay: Inhibition of Aurora B
[1] = Inhibition of Aurora kinase assessed as reduction histone H3 Ser10 phosphorylation by cell based assay
[2] = AUC (0-6 hrs) in rat at 10 mg/kg, po; type: ADME, organism-based; parameters: time < 6 hr, dose 10 mg/kg, route oral; details: plasma
[3] = target: Tyrosine-protein kinase Lck (Homo sapiens, UniProt P06239); assay: Inhibition of LCK
Sequence of Tyrosine-protein kinase Lck (P06239 whole entry): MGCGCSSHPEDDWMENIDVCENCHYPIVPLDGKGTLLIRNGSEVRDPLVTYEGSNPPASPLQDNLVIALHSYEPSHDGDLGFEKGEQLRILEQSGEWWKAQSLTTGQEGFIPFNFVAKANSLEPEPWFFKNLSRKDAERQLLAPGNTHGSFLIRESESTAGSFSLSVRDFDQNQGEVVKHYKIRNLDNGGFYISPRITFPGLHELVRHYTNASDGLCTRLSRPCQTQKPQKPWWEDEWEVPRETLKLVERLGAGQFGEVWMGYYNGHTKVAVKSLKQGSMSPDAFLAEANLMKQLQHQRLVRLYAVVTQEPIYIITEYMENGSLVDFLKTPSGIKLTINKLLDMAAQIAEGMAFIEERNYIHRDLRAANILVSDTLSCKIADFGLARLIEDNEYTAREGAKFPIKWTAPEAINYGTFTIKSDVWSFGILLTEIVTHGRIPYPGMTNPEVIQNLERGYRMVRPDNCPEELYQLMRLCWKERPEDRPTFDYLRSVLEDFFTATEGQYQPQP

Sequence of Aurora kinase B (Q96GD4 whole entry): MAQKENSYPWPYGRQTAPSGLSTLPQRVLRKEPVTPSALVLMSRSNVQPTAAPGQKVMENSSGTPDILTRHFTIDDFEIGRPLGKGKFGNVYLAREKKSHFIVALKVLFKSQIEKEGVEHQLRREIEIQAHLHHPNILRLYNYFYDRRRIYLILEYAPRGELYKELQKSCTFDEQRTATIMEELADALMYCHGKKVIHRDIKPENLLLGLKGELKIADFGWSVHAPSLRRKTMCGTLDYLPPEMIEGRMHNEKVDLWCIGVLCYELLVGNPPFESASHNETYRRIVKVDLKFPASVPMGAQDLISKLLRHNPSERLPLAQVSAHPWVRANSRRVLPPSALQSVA

Row | Compound | IC50 (Aurora kinase A) | IC50 (Aurora kinase B) | EC50 [1] | AUC(0-t) at 6 h [2] | IC50 [3]
1 | Cc1cn2c(-c3cn[nH]c3)cnc2c(Nc2cc(CN3CCN(C)CC3=O)ns2)n1 | ≤ 4 nM | ≤ 13 nM | > 1000 nM |  | 
2 | Cc1cn2c(-c3cn[nH]c3)cnc2c(Nc2cc([C@H](C)N3C[C@@H](C)O[C@@H](C)C3)ns2)n1 |  |  | 217 nM | 1.1 µM·h | 
3 | CCOCC(c1cc(Nc2nc(C)cn3c(-c4cn[nH]c4)cnc23)sn1)N1CCOCC1 (racemic) | ≤ 4 nM | ≤ 13 nM | 281 nM |  | 
4 | Cc1cn2c(-c3cn[nH]c3)cnc2c(Nc2cc(CN3CCN(S(C)(=O)=O)CC3)ns2)n1 | ≤ 4 nM | ≤ 13 nM | > 500 nM |  | 
5 | CSc1cn2c(-c3cn[nH]c3)cnc2c(Nc2cc(C)ns2)n1 |  | ≤ 13 nM | 600 nM |  | 
6 | Cc1cn2c(-c3cn[nH]c3)cnc2c(Nc2cc(CN3C[C@H](C)OC[C@@H]3C)ns2)n1 | ≤ 4 nM | ≤ 13 nM | 256 nM | 3.9 µM·h | 
7 | Cc1cn2c(-c3cn[nH]c3)cnc2c(Nc2cc(CN3CCOC(C)(C)C3)ns2)n1 | ≤ 4 nM | ≤ 13 nM | 250 nM |  | 

Stronger by EC50 [1], values ahead:

Row | IC50 (Aurora kinase A) | IC50 (Aurora kinase B) | EC50 [1] | AUC(0-t) at 6 h [2] | IC50 [3] | Compound
8 | ≤ 4 nM | ≤ 13 nM | 71 nM | 1.3 µM·h |  | Cc1cn2c(-c3cn[nH]c3)cnc2c(Nc2cc(C(C)N3CCOC(C)(C)C3)ns2)n1 (racemic)
9 | ≤ 4 nM | ≤ 13 nM | 117 nM | 3.3 µM·h | 384 nM | Cc1cn2c(-c3cn[nH]c3)cnc2c(Nc2cc(CN3CCOCC3(C)C)ns2)n1
10 | ≤ 4 nM | ≤ 13 nM | 104 nM | 0.4 µM·h |  | Cc1cn2c(-c3cn[nH]c3)cnc2c(Nc2cc(C(c3ccccn3)N3CCOCC3)ns2)n1 (racemic)
11 | ≤ 4 nM | ≤ 13 nM | 55 nM | 8 µM·h |  | Cc1cn2c(-c3cn[nH]c3)cnc2c(Nc2cc(C(C)N3C[C@@H](C)O[C@@H](C)C3)ns2)n1 (mixture of isomers)
12 | ≤ 4 nM | ≤ 13 nM | 83 nM | 2.3 µM·h |  | COCC(c1cc(Nc2nc(C)cn3c(-c4cn[nH]c4)cnc23)sn1)N1CCOCC1 (racemic)
13 | ≤ 4 nM | ≤ 13 nM | 74 nM | 1.1 µM·h |  | Cc1cn2c(-c3cn[nH]c3)cnc2c(Nc2cc(C(C)N3CCOCC3)ns2)n1 (racemic)
14 | ≤ 4 nM | ≤ 13 nM | 49 nM | 0.5 µM·h |  | CCC(c1cc(Nc2nc(C)cn3c(-c4cn[nH]c4)cnc23)sn1)N1CCOCC1 (racemic)

— ChEMBL document CHEMBL1268847, “Discovery of orally bioavailable imidazo[1,2-a]pyrazine-based Aurora kinase inhibitors” (Bioorg Med Chem Lett, 2010)
